Active and inactive are the calls of the source.
Legend:
Caspase-6 = molecular target: T1, Caspase-6 (Homo sapiens, UniProt P55212); assay: human caspase-6 inhibitors, dose response, biochemical, VEID-R110 fluorescence, cherry-pick (AID 720632)
T1 sequence (P55212 whole entry): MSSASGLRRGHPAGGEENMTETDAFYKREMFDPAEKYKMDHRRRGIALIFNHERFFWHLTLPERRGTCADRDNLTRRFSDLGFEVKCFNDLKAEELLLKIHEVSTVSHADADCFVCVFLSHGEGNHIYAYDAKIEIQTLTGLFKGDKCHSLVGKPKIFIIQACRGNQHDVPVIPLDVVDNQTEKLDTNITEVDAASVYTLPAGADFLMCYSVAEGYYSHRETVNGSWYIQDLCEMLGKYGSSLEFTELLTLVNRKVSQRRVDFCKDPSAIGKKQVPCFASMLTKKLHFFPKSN

Leucine aminopeptidase = molecular target: T2, Leucine aminopeptidase (Plasmodium falciparum 3D7, UniProt Q8IL11); assay: P. falciparum M17LAP inhibitors, primary screen, biochemical, fluorogenic H-Leu-NHMec substrate, 1536-well (AID 1619); assay type: functional
T2 sequence (Q8IL11 whole entry): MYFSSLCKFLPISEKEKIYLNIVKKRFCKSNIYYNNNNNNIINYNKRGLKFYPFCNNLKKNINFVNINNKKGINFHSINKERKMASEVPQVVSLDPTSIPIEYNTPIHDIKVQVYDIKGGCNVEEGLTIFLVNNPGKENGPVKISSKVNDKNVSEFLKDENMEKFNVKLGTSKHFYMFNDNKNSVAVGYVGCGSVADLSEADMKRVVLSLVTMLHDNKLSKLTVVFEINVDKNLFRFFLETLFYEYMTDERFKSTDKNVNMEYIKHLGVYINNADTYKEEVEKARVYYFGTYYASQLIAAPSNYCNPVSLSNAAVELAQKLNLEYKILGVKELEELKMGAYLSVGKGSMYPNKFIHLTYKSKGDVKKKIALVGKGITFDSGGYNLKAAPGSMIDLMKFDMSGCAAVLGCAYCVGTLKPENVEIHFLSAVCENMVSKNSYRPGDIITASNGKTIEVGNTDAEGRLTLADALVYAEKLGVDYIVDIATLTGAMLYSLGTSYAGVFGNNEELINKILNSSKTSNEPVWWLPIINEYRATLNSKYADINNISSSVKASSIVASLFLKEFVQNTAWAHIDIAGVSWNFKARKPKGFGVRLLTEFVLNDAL

[1] = molecular target: T3, Histone-lysine N-methyltransferase NSD2 (Homo sapiens, UniProt O96028); assay type: biochemical
T3 sequence (O96028 whole entry): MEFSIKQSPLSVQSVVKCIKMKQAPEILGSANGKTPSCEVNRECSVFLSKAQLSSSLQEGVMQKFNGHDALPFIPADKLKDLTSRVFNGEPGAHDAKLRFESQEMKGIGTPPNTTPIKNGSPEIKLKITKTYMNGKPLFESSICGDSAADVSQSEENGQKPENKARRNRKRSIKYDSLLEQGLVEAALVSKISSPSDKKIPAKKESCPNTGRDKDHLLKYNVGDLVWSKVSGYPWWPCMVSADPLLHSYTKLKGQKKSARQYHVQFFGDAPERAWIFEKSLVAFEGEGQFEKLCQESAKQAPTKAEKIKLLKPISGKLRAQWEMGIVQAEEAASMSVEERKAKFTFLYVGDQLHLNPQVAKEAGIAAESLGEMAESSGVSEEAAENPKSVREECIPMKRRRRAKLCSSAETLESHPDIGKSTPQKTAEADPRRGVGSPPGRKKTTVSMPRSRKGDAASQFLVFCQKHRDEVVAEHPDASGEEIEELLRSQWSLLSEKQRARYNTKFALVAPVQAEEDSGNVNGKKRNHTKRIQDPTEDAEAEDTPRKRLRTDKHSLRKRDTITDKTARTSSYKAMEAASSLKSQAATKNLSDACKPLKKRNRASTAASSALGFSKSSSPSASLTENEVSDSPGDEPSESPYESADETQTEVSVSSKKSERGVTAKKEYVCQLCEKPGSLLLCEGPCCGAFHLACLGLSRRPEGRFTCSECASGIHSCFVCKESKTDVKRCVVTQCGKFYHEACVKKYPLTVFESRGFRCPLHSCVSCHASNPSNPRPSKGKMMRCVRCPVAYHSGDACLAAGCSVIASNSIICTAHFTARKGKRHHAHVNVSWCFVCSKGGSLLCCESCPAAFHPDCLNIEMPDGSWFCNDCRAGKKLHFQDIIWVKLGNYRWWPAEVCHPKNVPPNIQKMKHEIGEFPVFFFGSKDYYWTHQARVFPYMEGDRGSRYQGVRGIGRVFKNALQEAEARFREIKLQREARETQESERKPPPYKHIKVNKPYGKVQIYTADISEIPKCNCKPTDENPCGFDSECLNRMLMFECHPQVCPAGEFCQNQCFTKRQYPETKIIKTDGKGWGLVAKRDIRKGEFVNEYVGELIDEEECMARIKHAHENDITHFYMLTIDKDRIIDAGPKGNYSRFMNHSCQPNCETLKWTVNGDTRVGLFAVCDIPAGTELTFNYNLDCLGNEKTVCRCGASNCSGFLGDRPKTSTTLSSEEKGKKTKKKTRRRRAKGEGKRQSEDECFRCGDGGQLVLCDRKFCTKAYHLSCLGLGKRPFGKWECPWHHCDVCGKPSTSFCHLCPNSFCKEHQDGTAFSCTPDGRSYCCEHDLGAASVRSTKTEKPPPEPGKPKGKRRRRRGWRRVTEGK

[2] = HEp-2 cell cytotoxicity, dose response, cytotoxicity control for RSV inhibitor project, HTS (AID 2410); assay type: functional; conditions: human respiratory syncytial virus
[3] = M. tuberculosis H37Rv growth inhibitors, H37Rv strain (AID 1626); assay type: functional
cells = assay type: functional, cell-based; conditions: HEK-CNG
Galanin receptor type 3 = molecular target: T4, Galanin receptor type 3 (Homo sapiens, UniProt O60755); assay: Fluorescence-based cell-based primary high throughput dose response assay to identify antagonists of the Galanin Receptor 3 (GalR3).; assay type: functional
T4 sequence (O60755 whole entry): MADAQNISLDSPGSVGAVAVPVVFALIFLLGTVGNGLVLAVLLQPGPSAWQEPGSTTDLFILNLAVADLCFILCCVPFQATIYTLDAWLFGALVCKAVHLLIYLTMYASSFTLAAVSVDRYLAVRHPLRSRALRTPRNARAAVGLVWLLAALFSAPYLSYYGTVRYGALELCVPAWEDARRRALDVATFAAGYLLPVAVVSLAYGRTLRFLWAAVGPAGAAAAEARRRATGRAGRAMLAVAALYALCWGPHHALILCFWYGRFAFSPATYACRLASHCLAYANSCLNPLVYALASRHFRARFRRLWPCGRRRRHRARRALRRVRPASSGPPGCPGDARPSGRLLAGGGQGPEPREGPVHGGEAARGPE

[4] = molecular target: T5, Calpain-2 catalytic subunit (Sus scrofa, UniProt P43367); assay: pig calpain II inhibitor potency, dose response, biochemical, fluorogenic peptide substrate (AID 1420); assay type: functional
T5 sequence (P43367 whole entry): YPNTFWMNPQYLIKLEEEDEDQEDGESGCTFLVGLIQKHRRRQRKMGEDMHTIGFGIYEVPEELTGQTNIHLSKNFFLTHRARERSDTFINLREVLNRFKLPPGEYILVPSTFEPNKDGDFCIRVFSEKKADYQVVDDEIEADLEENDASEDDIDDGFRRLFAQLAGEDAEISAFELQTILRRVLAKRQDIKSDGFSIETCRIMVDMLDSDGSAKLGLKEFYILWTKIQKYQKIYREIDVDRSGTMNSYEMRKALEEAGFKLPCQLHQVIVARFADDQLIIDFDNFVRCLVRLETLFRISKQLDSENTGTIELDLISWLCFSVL

Vero = assay: cells; assay type: functional; conditions: Chlorocebus sabaeus
Paired box protein Pax-8 = Paired box protein Pax-8 (Homo sapiens, UniProt Q06710); assay: inhibitors of PAX8-driven TPO luciferase reporter, dose response, RMG-I cells, cherry-pick (AID 687027); assay type: functional, cell-based;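 also: luciferase reporter driven by Pax8 target thyroperoxidase promoter measured by SteadyGlo luminescence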
INS1 = assay: beta cell apoptosis inhibitors, cytokine rescue, dose response, luminescence, retest (AID 449756); assay type: functional, cell-based; conditions: Rattus norvegicus;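 also: cell death triggered by IL-1 beta plus TNF-alpha plus IFN-gamma mixture; protective hits raise ATP signal compared with cytokine alone wells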
[5] = inhibitors of Vif binding to APOBEC3G peptide, primary screen, biochemical, TR-FRET, GST-Vif 1-94, biotin-A3G peptide, dose response retest (AID 1117319); assay type: functional;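 also: TR-FRET signal of purified GST-Vif binding a biotinylated A3G peptide; inhibitors lower the FRET signal by blocking Vif and A3G binding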
Genome polyprotein = Genome polyprotein (dengue virus type 2, UniProt P29990); assay: Dengue-2 NS5 methyltransferase inhibitors, primary screen, biochemical, confirmation dose response (AID 588689); assay type: functional
[6] = molecular target: Peroxisome proliferator-activated receptor gamma/Nuclear receptor coactivator 1 (Homo sapiens, UniProt P37231); assay: TR-FRET dose response biochemical High Throughput Screening assay for agonists of the steroid receptor coactivator 1 (SRC-1) recruitment by the peroxisome proliferator-activated receptor gamma (PPAR gamma): non-selective agonists. [Related pubchem assays (depositor defined):AID1300, AID1808, AID504735, AID631]; assay type: protein assay
[7] = molecular target: Peroxisome proliferator-activated receptor gamma/Nuclear receptor coactivator 2 (Homo sapiens, UniProt P37231); assay: (§1) TR-FRET dose response biochemical High Throughput Screening assay for agonists of the steroid receptor coactivator 2 (SRC-2) recruitment by the peroxisome proliferator-activated receptor gamma (PPAR gamma): non-selective agonists. [Related pubchem assays: 1297, 1032 ]; assay type: functional
[8] = molecular target: Peroxisome proliferator-activated receptor gamma/Nuclear receptor coactivator 3 (Homo sapiens, UniProt P37231); assay: as §1, with “3 (SRC-3)” for “2 (SRC-2)”, “1301 (Confirmation screen.), 1048 (Primary screen.)]” for “1297, 1032 ]”; assay type: functional
[9] = molecular target: T6, RNA-binding protein pos-1 (Caenorhabditis elegans, UniProt G5EF15); assay: inhibitors of POS-1/mex-3 RNA binding, dose response, biochemical, fluorescence polarization (AID 1964);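 also: purified POS-1 fused to maltose binding protein made in E. coli; potency of compounds blocking POS-1 binding to fluorescent RNA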
T6 sequence (G5EF15 whole entry): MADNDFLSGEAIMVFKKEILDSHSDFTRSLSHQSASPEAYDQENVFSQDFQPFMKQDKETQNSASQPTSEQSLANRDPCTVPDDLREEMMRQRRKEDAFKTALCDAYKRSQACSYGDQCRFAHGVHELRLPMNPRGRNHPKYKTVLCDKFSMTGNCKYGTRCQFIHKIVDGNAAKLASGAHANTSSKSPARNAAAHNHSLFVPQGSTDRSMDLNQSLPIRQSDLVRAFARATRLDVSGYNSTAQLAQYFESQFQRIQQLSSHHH

[10] = molecular target: T7, Zinc finger protein mex-5 (Caenorhabditis elegans, UniProt Q9XUB2); assay: MEX-5/TCR-2 RNA interaction inhibitors, dose response, biochemical, C. elegans, fluorescence polarization (AID 1960)
T7 sequence (Q9XUB2 whole entry): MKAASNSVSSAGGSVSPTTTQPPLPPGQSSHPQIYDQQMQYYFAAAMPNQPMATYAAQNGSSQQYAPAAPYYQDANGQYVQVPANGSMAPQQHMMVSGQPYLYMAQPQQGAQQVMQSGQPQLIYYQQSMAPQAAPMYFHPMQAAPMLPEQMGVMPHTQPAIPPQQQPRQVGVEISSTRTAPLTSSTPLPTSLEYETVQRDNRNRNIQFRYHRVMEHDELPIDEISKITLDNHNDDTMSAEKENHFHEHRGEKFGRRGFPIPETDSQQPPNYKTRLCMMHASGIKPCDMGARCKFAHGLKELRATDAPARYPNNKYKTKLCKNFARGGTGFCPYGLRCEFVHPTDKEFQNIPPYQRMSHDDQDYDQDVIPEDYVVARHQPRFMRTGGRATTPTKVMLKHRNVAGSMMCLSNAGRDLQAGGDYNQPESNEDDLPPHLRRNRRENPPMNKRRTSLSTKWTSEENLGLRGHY

[11] = molecular target: Induced myeloid leukemia cell differentiation protein Mcl-1 (Homo sapiens, UniProt Q07820); assay type: functional
Sequence of Induced myeloid leukemia cell differentiation protein Mcl-1 (Q07820 whole entry): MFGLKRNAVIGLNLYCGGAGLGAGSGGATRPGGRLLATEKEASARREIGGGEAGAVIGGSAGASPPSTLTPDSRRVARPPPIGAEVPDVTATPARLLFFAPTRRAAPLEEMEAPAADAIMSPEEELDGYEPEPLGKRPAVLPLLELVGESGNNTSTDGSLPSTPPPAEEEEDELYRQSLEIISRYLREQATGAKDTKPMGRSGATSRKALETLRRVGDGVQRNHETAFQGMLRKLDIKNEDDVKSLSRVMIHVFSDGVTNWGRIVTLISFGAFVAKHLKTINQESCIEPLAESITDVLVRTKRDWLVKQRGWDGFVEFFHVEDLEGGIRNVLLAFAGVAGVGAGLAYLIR

Sequence of Paired box protein Pax-8 (Q06710 whole entry): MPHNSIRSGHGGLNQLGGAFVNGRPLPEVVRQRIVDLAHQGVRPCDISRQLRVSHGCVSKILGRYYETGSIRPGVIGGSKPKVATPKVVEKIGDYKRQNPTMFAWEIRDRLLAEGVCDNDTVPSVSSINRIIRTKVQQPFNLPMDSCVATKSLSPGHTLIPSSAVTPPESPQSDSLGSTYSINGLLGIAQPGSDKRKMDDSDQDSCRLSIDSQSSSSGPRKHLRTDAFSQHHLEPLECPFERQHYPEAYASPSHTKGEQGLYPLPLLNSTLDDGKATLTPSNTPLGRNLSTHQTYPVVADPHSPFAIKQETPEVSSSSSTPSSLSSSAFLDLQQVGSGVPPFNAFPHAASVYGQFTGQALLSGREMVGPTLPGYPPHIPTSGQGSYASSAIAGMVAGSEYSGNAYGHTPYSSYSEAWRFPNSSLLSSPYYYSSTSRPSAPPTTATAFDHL
Sequence of Genome polyprotein (P29990 2492-3391 limits assumed): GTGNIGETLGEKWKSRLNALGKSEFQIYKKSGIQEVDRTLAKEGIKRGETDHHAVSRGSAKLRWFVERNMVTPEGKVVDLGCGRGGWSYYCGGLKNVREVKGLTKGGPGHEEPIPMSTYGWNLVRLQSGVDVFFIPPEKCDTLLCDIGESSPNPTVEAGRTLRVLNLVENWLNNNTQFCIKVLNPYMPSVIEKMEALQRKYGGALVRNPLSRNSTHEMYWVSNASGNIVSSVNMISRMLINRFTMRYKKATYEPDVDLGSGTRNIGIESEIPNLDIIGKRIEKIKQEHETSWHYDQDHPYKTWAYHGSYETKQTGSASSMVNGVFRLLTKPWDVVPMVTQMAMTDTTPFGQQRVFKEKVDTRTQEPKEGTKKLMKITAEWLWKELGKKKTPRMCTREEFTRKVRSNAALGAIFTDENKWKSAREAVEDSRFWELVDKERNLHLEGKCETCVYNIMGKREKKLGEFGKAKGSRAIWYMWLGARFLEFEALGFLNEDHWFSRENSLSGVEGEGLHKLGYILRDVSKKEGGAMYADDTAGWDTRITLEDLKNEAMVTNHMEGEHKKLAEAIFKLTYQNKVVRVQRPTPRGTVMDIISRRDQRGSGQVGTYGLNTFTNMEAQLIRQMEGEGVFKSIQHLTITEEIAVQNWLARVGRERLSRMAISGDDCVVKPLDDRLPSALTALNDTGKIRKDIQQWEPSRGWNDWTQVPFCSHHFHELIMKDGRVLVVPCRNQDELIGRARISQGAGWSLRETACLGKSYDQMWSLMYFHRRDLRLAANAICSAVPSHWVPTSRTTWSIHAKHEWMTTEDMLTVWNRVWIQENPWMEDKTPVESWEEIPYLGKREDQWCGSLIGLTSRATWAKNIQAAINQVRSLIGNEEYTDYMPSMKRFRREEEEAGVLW
Sequence of Peroxisome proliferator-activated receptor gamma/Nuclear receptor coactivator 2 (P37231 whole entry): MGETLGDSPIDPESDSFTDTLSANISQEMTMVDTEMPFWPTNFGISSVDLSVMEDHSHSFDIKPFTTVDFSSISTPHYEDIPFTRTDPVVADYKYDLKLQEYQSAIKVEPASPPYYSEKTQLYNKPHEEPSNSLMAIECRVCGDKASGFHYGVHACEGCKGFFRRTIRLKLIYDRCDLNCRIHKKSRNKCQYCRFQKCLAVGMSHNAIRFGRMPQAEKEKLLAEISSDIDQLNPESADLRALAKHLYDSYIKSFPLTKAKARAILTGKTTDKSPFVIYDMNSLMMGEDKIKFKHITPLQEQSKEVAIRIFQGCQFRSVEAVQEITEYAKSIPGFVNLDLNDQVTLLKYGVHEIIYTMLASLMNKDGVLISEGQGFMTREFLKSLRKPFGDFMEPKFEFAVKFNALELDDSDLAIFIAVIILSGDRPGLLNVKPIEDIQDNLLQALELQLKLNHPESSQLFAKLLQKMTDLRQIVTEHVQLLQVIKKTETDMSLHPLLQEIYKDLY
Sequence of Peroxisome proliferator-activated receptor gamma/Nuclear receptor coactivator 2 (Q15596 whole entry, further chain): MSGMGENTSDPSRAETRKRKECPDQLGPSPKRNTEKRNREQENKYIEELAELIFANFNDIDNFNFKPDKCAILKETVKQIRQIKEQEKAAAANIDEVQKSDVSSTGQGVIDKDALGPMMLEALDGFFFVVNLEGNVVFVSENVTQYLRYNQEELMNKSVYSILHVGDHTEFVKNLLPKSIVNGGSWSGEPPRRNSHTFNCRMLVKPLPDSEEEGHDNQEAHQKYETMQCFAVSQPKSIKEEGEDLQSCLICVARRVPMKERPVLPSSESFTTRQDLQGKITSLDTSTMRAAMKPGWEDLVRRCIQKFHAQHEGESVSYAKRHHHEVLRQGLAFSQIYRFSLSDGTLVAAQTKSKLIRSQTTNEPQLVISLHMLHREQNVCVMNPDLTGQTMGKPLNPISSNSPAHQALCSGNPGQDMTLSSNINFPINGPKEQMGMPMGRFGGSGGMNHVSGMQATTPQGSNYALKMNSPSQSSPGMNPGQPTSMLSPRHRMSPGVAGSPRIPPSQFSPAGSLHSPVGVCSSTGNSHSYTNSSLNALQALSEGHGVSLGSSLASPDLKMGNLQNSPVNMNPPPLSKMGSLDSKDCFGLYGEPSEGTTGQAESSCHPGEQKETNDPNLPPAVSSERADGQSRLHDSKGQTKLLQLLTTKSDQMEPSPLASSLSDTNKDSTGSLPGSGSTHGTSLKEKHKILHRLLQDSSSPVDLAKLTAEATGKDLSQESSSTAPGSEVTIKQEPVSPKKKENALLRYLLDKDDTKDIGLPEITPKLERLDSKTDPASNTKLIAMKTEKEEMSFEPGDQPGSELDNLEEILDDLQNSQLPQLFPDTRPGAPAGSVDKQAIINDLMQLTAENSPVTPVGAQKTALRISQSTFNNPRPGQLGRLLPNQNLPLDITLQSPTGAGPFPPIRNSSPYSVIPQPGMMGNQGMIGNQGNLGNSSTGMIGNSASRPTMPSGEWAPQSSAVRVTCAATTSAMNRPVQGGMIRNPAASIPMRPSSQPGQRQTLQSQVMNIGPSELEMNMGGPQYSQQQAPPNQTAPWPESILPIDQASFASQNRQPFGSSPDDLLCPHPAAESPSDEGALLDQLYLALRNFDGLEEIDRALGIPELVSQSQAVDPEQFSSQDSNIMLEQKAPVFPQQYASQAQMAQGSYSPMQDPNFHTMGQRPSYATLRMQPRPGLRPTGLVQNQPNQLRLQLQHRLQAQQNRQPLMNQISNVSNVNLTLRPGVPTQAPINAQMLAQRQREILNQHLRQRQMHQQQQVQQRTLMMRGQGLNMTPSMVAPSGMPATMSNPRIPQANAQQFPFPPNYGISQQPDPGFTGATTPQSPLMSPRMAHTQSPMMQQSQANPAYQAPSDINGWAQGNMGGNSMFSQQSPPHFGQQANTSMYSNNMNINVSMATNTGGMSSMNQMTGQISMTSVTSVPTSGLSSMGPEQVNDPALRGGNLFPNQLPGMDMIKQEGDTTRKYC

N#CC1=C(N)Oc2c(c(=O)oc3ccccc23)C1c1ccc([N+](=O)[O-])o1 (stereo unspecified)
AC50 (Caspase-6): 13.9 µM (active)

COc1ccc(NC(=O)CN2C(=O)CSC(C)C2=O)cc1 (stereo unspecified)
IC50 (Leucine aminopeptidase): 3.83 µM (active)

CN(C)c1ccc(CNCCC(Cc2ccccc2)c2ccco2)cc1 (stereo unspecified)
AC50 [1]: > 20 µM (inactive)

Cc1c(NC(=S)NC(=O)c2ccc(-c3ccc(Cl)cc3)o2)cccc1C(=O)O
CC50 [2]: 35.4 µM (active)
IC50 (Leucine aminopeptidase): 29.7 µM (active)

CCOc1ccc(NC(=O)CCn2cccc2)cc1
IC50 [3]: > 100 µM (active)

CCOc1ccc(NC=C2C(=O)CC(C)(C)CC2=O)cc1
IC50 [3]: > 100 µM (active)

Cc1ccc(-c2[nH]nc3c2C(c2ccoc2)C(C#N)=C(N)O3)cc1C (stereo unspecified)
IC50 (Leucine aminopeptidase): 3.65 µM (active)

COc1ccc(-c2csc(NC(=O)c3ccccc3NS(=O)(=O)c3ccc(F)c(F)c3)n2)cc1
EC50 (cells): > 29.9 µM (inactive)
IC50 (Galanin receptor type 3): 1.4 µM (active)
IC50 [4]: > 50 µM (not active)
CC50 (Vero): 2.03 µM (active)
AC50 (Paired box protein Pax-8): 2.64 µM (active)
AC50 (INS1): 3.05 µM (active)

Cc1ccc(NC(=O)CCn2cnc3ccccc3c2=O)cc1Cl
IC50 [3]: > 100 µM (active)

CSc1nc2ccc(NS(=O)(=O)c3cccc(Cl)c3Cl)cc2s1
IC50 [3]: > 100 µM (active)

CCCn1c(=N)n(CC(O)c2ccco2)c2ccccc21 (stereo unspecified)
IC50 [5]: > 100 µM (active)

Cc1ccc(C(=O)N2c3ccc(F)cc3CCC2C)o1 (stereo unspecified)
IC50 [5]: > 100 µM (active)

O=C1/C(=C/c2ccc(C(=O)O)cc2)CCC/C1=C\c1ccc(C(=O)O)cc1
IC50 (Genome polyprotein): > 100 µM (active)
IC50 (Leucine aminopeptidase): 62.7 µM (active)

COc1c(F)c(F)c(C(=O)Nc2ccc3oc(-c4ccncc4)nc3c2)c(F)c1F
EC50 [6]: 21.5 µM (inactive)
IC50 [5]: > 100 µM (active)
EC50 [7]: 20.6 µM (not active)
EC50 [8]: 57.7 µM (not active)

COc1cccc(CNc2ccccc2O)c1OCc1ccccc1F
IC50 [3]: > 100 µM (active)

N#CC1=C(N)Oc2cc(O)c(Cl)cc2C1c1ccccc1F (stereo unspecified)
AC50 (Caspase-6): 42.2 µM (active)
EC50 [9]: > 300 µM (not active)
EC50 [10]: > 300 µM (not active)

COc1ccc(N2CCN(CCNC(=O)Nc3ccc(Cl)cc3)CC2)cc1
IC50 [5]: > 100 µM (active)

O=c1nc2s/c(=C\c3ccc(-c4ccccc4[N+](=O)[O-])o3)c(=O)n2nc1-c1ccccc1
AC50 (Caspase-6): 18 µM (active)
IC50 [11]: 9.66 µM (active)

— ChEMBL document CHEMBL1201862, “PubChem BioAssay data set” (2004)
